Reference: patent US20260034192A1 (University of Saskatchewan, priority 2022, published 2026)
Several values for one entry are separate records, joined by “and”; a condition that tells them apart may be missing. Equal values may be shown once. Square brackets hold non-standard residues; d marks the D form. Peptide text beside a SMILES is read from it. dPhe(4-Cl) = N[C@H](Cc1ccc(Cl)cc1)C(=O)O; d2Nal = N[C@H](Cc1ccc2ccccc2c1)C(=O)O; dCit = NC(=O)NCCC[C@@H](N)C(=O)O; d3Pal = N[C@H](Cc1cccnc1)C(=O)O

What was measured:
[1] = tested on: Hereford crossbred heifers; assay: Cetrorelix pre-treatment before kisspeptin-10 in low-progesterone heifer model (Example 1); format: in vivo, cattle
Method: Methods: The human Kisspeptin-10 (hKP-10) peptide (YNWNSFGLRF-NH2; SEQ ID NO: 1) was custom synthetized at >95% of purity (MW: 1318.44 g/mol) by GenScript USA Inc, Piscataway, NJ, USA. The sequence is based on the predicted C-terminal region (112-121-NH2) of human metastin (Gen Bank accession #AY117143) and has been previously used in cattle. The peptide was previously tested for solubility and was dissolved in ultrapure water at 10 mg/mL.
The heifers were maintained in outdoor pens at the University of Saskatchewan Goodale Research Farm (52° north and 106° west). Heifers were fed barley silage and had hay and water ad libitum. A mineral salt block was available to heifers throughout the study period. All procedures were performed in accordance with Canadian Council on Animal Care and were approved by the University of Saskatchewan Protocol Review Committee.
Immediately after ultrasound examination, heifers were given PGF2a twice at an interval of 12-hours. The low-progesterone bovine model described previously (Leonardi et al. 2019) was used to test the hypothesis. Briefly, the ovaries were examined daily by ultrasonography to detect ovulation. Three days after ovulation, follicles ≥5 mm in diameter in both ovaries were ablated by transvaginal ultrasound-guided follicle aspiration, inducing the emergence of new follicular wave 1.5 days after the procedure (Bergfelt et al. 1994). After follicular ablation, a progesterone device was placed in the vagina (CIDR; Zoetis). The day of wave emergence (Day 0) was defined as the day when the follicle of wave was first recorded (4 to 5 mm in diameter) with concurrent increase in diameter. Heifers were given PGF2α im on Days 3.5 and 4 (i.e., 8 and 8.5 days after ovulation) to cause luteolysis, however, the CIDR devices were left in place until Day 12 to maintain a low-progesterone milieu sufficient to prevent spontaneous ovulation. On Day 6, an indwelling jugular catheter was placed as described (Bergfelt et al. 1997) and heifers were assigned randomly to three groups (n=5 per group): 1) 3 iv doses of 15 mg human kisspeptin-10 at 1 h intervals (Kp10 group), 2) pretreatment with single im dose of Cetrorelix acetate (20 μg/Kg of body weight, GnRH antagonist—Sigma #C5249 diluted in 5% D-Manitol w/v, Sigma #M4125) followed 3 h later with 3 iv doses of 15 mg human kisspeptin-10 at 1 h intervals (Cetrorelix group), or 3) 3 iv doses of normal saline at 1 h intervals (Control group). Following treatment (on Day 6), ovarian ultrasound examinations were performed daily until the end of the experiment to detect ovulation of the extant dominant follicle (i.e., dominant follicle present at the time of treatment) or of the dominant follicle originating from a subsequent wave. The progesterone device was withdrawn on Day 12 (i.e., thirteen days after insertion) and ultrasound examinations were continued until ovulation was detected.
Blood samples and hormone assays: Serial blood samples on the day of treatment were collected at 15 minute intervals from −30 to 150 min (0 min=time of first hKP-10 or saline injection) using the indwelling jugular catheter. All blood samples were collected in heparinized tubes (Vacutainer, BD, Franklin Lakes NJ, USA). Immediately after sampling, tubes were centrifuged at 1,500×g for 15 min, and plasma was separated and stored at −20° C.
The plasma samples from both experiments were analyzed for LH and progesterone concentration at the University of Wisconsin (Madison, WI, USA) in Dr O. J. Ginther's Research Laboratory. Plasma LH concentrations were measured with a validated radioimmunoassay for cattle (Bolt et al. 1990) with modifications as reported Ginther et al. 1999). Briefly, LH concentrations were measured in duplicate using USDA-bLH-B-6 for ^125I-iodination and for preparing reference standards, and USDA-309-684P as the primary antibody (National Hormone and Pituitary Program, Torrance, CA, USA). […]

[2] = tested on: alpacas; assay: Alpaca random day study, single Cetrorelix injection (Example 3); format: in vivo; conditions: for Duration from treatment to next wave emergence, mean / Variance of duration from treatment to wave emergence (synchrony): alpacas, n = 15, single i/m 1.5 mg on random day of wave
Method: Methods: Ultrasonographic methods and follicular endpoint recording were similar to those described in Example 2. Follicular endpoints were obtained from alpacas (n=15) before and after treatment, therefore each animal acts as its own control. A fixed calendar day (July 16) was pre-assigned for Cetrorelix treatment. Daily transrectal ultrasonography was performed (n=15 alpacas) from May 31 to June 16. This examination period was used to record the variance in wave emergence from a fixed calendar date (May 31) without giving treatment (control period). Animals were at unknown/random day of the wave at the beginning of this 17-day time-window (i.e., longer than one natural inter-wave interval); therefore, all animals were expected to have at least one wave emergence encompassing this period. All alpacas were treated with a single intramuscular injection of 1.5 mg (3 mL) Cetrorelix acetate on July 16 and daily ultrasound examinations continued from the day of treatment until Day 3 after the next (post-treatment) wave emergence (treatment period). Synchrony of wave emergence was compared between the control period and the treatment period.
Statistical analyses: A Proc Mixed repeated measures analysis of variance (SAS version 9.4) was performed to compare serial data (follicle size and follicle numbers changes over days) and ANOVA or paired T-test were used for single-point numerical measurements. Count data were compared using Fisher's Exact test. Synchrony of the wave emergence was compared using Barlett's and Levene's tests of homogeneity of the variance.

[3] = Day 6 of wave, low progesterone, Kp10 3 x 15 mg iv, Cetrorelix 20 μg/Kg im 3 h before Kp10
[4] = Kp10 3 x 15 mg iv, Cetrorelix 20 μg/Kg im 3 h before Kp10

## CC(=O)N[C@H](Cc1ccc2ccccc2c1)C(=O)N[C@H](Cc1ccc(Cl)cc1)C(=O)N[C@H](Cc1cccnc1)C(=O)N[C@@H](CO)C(=O)N[C@@H](Cc1ccc(O)cc1)C(=O)N[C@H](CCCNC(N)=O)C(=O)N[C@@H](CC(C)C)C(=O)N[C@@H](CCCNC(=N)N)C(=O)N1CCC[C@H]1C(=O)N[C@H](C)C(N)=O [Cetrorelix, N-acetyl-3-(2-naphthyl)-D-alanyl-4-chloro-D-phenylalanyl-3-(3-pyridyl)-D-alanyl-L-seryl-L-tyrosyl-D-citrullyl-L-leucyl-L-arginyl-L-prolyl-D-alaninamide] (Ac-[d2Nal][dPhe(4-Cl)][d3Pal]SY[dCit]LRP[dA]-NH2)
[1]; [3]
  Dominant follicle diameter 24 h after treatment: 13.38 ± 0.55 mm
  Dominant follicle diameter 48 h after treatment: 12.91 ± 0.55 mm
  Dominant follicle diameter at time of treatment: 13.01 ± 0.68 mm
[1]; Day 6 of wave, low progesterone, Kp10 3 x 15 mg iv, Cetrorelix single im 20 μg/Kg 3 h before Kp10
  Emergence of a new follicular wave after treatment: 3.40 ± 0.75 days and 3.4 days
[1]; Day 6 of wave, low progesterone, Kp10 3 x 15 mg iv, Cetrorelix single im 20 μg/Kg 3 h before Kp10, listed as Cetrorelix acetate
  Emergence of a new follicular wave after treatment: about 3.40±0.75 days
[1]; Day of follicular wave
  Day of ovulation of new dominant follicles after CIDR removal (Day 12): 15
[1]; [4]
  Heifers in which a new wave emergence occurred: 5 of 5
  Number of ovulations after CIDR removal on Day 12: Extant dominant follicle: 0/5
  Number of ovulations after CIDR removal on Day 12: New dominant follicle: 5/5
  Plasma LH concentration / kisspeptin-induced LH surge: suppressed the kisspeptin-induced LH surge
[1]; after kisspeptin and GnRH antagonist treatment
  Time by which the dominant follicle entered the regression phase: ≤ 72 h
[2]
  Duration from treatment to next wave emergence, mean: 5.33 ± 0.70 days and 5.33 days
  Variance of duration from treatment to wave emergence (synchrony): 7.38
[2]; listed as Cetro
  Duration from treatment to next wave emergence, mean: 5.33 days
  Variance of duration from treatment to wave emergence (synchrony): 7.381
[2]; listed as cetrorelix
  Duration from treatment to next wave emergence, mean: about 5.33±0.70 days
[2]; individual alpacas, single i/m injection of 1.5 mg Cetrorelix on random day of wave
  Duration from Treatment to Wave Emergence: 11 days and 3 days (2×) and 4 days (6×) and 9 days and 1 days and 6 days and 8 days (2×) and 7 days
